Measured values published in patent US20200038397A1, “PHARMACOTHERAPY FOR PREVENTING OR TREATING GLAUCOMA” (KOWA COMPANY, LTD., priority 2014, published 2020).

Test system: white rabbit
Assay: intraocular pressure-lowering effect of single and combined eye drop administration in white rabbits
Format: in vivo
Conditions: for IOP: intraocular pressure, 0 h: initial intraocular pressure immediately before application; for IOP: intraocular pressure, 0 h / IOP: intraocular pressure, 0.5 h / IOP: intraocular pressure, 1 h: n = 10, Compound 1 0.4% 50 μL, brimonidine 0.1% 50 μL; for IOP: intraocular pressure, 0.5 h: 0.5 h after application; for IOP: intraocular pressure, 1 h: 1 h after application
Experimental: To investigate the usefulness of the combination of (S)-(−)-1-(4-fluoro-5-isoquinolinesulfonyl)-2-methyl-1,4-homopiperazine (Compound 1) and an α2 agonist, intraocular pressure-lowering effect was compared between the case where each drug was singly administered to an experimental animal and the case where the drugs were administered to an experimental animal in combination.
(S)-(−)-1-(4-fluoro-5-isoquinolinesulfonyl)-2-methyl-1,4-homopiperazine hydrochloride dihydrate was dissolved in physiological saline, and the solution was then neutralized (pH 6.0) with addition of sodium dihydrogen phosphate and sodium hydroxide to prepare a solution of Compound 1 at a desired concentration.
Commercially available brimonidine (Senju Pharmaceutical Co., Ltd., AIPHAGAN eye drop 0.1%) was directly used.
The intraocular pressure-lowering effect of combined administration of Compound 1 and brimonidine was investigated. As controls, the intraocular pressure-lowering effect of single administration of Compound 1 and that of single administration of brimonidine were further investigated.
Solution of Compound 1: 0.4% solution (amount of application: 50 μL)
Brimonidine: 0.1% eye drop (amount of application: 50 μL)
Experimental animal: white rabbit (sex: male, 10 rabbits per group)
1) One drop of […] oxybuprocaine hydrochloride eye drop (trade name: Benoxil 0.4% solution) was applied to both eyes of an experimental animal for local anesthesia (data were acquired only from the eye to which the eye drop was applied).
2) The intraocular pressure was measured immediately before administration of a solution of a test compound, and the measurement was used as the initial intraocular pressure.
3) The solution of Compound 1 was applied to one eye of the experimental animal, and subsequently the solution of brimonidine was applied to the same eye.
4) One drop of the 0.4% oxybuprocaine hydrochloride eye drop was applied to each eye for local anesthesia 0.5 hours, 1 hour, 2 hours, 3 hours, 4 hours, and 5 hours after the application of the agents, and the intraocular pressure was then measured.
Compound 1 was singly applied, and a test was performed at the same measurement times as in the combined administration test.
A test was performed using the same method as in the single administration test except that the test solution in the single administration of Compound 1 was replaced with that of brimonidine.
The intraocular pressure was represented as an amount of change from the initial intraocular pressure. For statistical processing, Stat Preclinica Client 1.1 with parametric Tukey's multiple comparison was used.

Compound: Brc1c(NC2=NCCN2)ccc2nccnc12 [Brimonidine, brimonidine]
- IOP: intraocular pressure, 0 h: 24.2 ± 1.3 mmHg
- IOP: intraocular pressure, 0.5 h: 25.2 ± 0.9 mmHg
- intraocular pressure-lowering action 0.5 hours after application of an eye drop (in words) (0.5 hours after application): no intraocular pressure-lowering action
- IOP: intraocular pressure, 1 h: 19.4 ± 1.2 mmHg

Compound: C[C@H]1CNCCCN1S(=O)(=O)c1cccc2cncc(F)c12 [Compound 1, (S)-(−)-1-(4-fluoro-5-isoquinolinesulfonyl)-2-methyl-1,4-homopiperazine]
- IOP: intraocular pressure, 0 h: 26.5 ± 0.8 mmHg
- IOP: intraocular pressure, 0.5 h: 20.5 ± 1.2 mmHg
- IOP: intraocular pressure, 1 h: 15.9 ± 1.0 mmHg
